In one test the test system is Neu1 sialidase. The test is described as follows: Sialidase activity in live RAW-blue macrophage cells, 4-MUNANA substrate (Example 1). In kind it is cell-based, mouse. The note with it: inhibitor 200 μg/mL, 0.318 mM 4-MUNANA.
The target in a further test is T1, MMP1 (Homo sapiens, UniProt P03956).
T1 sequence (P03956 100-469): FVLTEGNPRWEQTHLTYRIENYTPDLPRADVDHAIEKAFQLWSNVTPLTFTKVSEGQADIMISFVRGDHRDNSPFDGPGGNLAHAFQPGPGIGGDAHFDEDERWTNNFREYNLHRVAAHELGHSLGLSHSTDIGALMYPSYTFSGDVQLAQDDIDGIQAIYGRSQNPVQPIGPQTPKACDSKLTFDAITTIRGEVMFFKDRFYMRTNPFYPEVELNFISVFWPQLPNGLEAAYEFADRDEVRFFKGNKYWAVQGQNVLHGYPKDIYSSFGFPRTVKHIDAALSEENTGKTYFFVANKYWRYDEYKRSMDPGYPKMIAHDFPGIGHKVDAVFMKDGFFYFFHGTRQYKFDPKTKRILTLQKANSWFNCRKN
The conditions noted are these: read-out: IC50 for MMP1; cited from earlier work.

Another test addresses MMP13 (Homo sapiens, UniProt P45452). The conditions noted are these: cited from earlier work.

In the case of `CCN(CC)Cc1cc(C)c(N(Cc2ccccc2)S(=O)(=O)c2ccc(OC)cc2)c(C(=O)NO)c1` [MMP9 inhibitor], in the test with Neu1 sialidase (FIG. 2B), the “inhibition of sialidase activity associated with S-protein” value is “inhibited”. Also, the “inhibition of sialidase activity associated with S-protein (UK variant)” value with Neu1 sialidase (FIG. 2C) is “inhibited”. Further, the IC50 (in general, the point on the concentration scale where inhibition reaches its midpoint) on MMP1 was 1050 nM; at MMP13 it was 113 nM.

The values above are taken from patent publication US12678418B2, “Compositions and methods for the treatment of threatened respiratory failure caused by coronavirus infection and disease” (ENCYT TECHNOLOGIES, INC., priority 2020, dated 2026).
